This note sets out measurements from patent US12216122B2, “Compositions and methods relating to detection, inhibition, and imaging of indoleamine 2,3-dioxygenase 1 (IDO1)” (Regeneron Pharmaceuticals, Inc., priority 2019, dated 2025).

A word on the EC50: it is the midpoint of the concentration-response curve.

“Also recorded” adds a separate entry of the source. Read-outs that look alike come from different tables or passages of the source. Bridge positions count the residues as written; N and C are the ends. Square brackets hold non-standard residues; d marks the D form. Triazole bridges read from a SMILES are 1,4-linked. Ends that are not written are not given here. Peptide text beside a SMILES is read from it. * marks the point of attachment. Biotinyl(3aR,4R,6aS) = O=C1N[C@@H]2[C@@H](CS[C@@H]2CCCCC(=O)*)N1; dTrp(1-Me) = Cn1cc(C[C@@H](N)C(=O)O)c2ccccc21; X1 = O=C(CSc1nonc1/C(=N/O)Nc1ccc(F)c(Br)c1)*; Trp(1-Me) = Cn1cc(C[C@H](N)C(=O)O)c2ccccc21; Lys(N3) = [N-]=[N+]=NCCCC[C@H](N)C(=O)O; Phe(4-F) = N[C@@H](Cc1ccc(F)cc1)C(=O)O; dPhe(4-F) = N[C@H](Cc1ccc(F)cc1)C(=O)O; dNMeV = CN[C@@H](C(=O)O)C(C)C; AEEEA = NCCOCCOCCOCC(=O)O; Pra = C#CC[C@H](N)C(=O)O; βAla = NCCC(=O)O

Data set [1] in a line: Percent organic elution in reverse-phase HPLC (C18) as lipophilicity readout. It counts as physicochemical. The settings on record: Table 16. The source says: The predicted increase in lipophilicity for wyvay (SEQ ID NO:2) was experimentally confirmed by the percent organic (% B) elution during reverse-phase HPLC (RP-HPLC) using a C18 column where solvents A=water+0.1% TFA and B=acetonitrile+0.1% TFA.

Data set [2] has as its target T1, His-tagged IDO1 human recombinant protein (Homo sapiens, UniProt P14902).
T1 construct: purchased BPS Biosciences 71182
Put plainly: IDO1 ELISA (Affinity Assay): sandwich ELISA, biotinylated ligand immobilized on NEUTRAVIDIN plate. It counts as binding. The protocol: (§1) Protocol: A black 96-well NEUTRAVIDIN® Coated High Binding Capacity plate (15510, Pierce) was coated with 2 μM biotinylated macrocyclic peptide ligand in TBS (25 mM Tris-HCl, 150 mM NaCl, pH 7.6) for 2 h at room temperature. The plate was aspirated and then washed with Wash Buffer (0.05% (v/v) TWEEN® 20 in PBS, 6×). His-tagged IDO1 human recombinant protein (71182, BPS Biosciences) was serially diluted in Wash Buffer (from 200 to 0 nM) and incubated in the designated microwells for 1 h at room temperature. Microwells were aspirated and subsequently washed with Wash Buffer (11×). To detect the bound IDO1 protein, Alkaline Phosphatase (AP)-conjugated Anti-6×HIS TAG® antibody [HIS-1] (ab49746, Abcam) was prepared at 1:10,000 dilution and added to the microwells for 1 h at room temperature. The plate was aspirated and washed with Wash Buffer (5×). ATTOPHOS® AP Fluorescent Substrate System (S1000, Promega) was employed to develop the microwells. Using an excitation wavelength of 430 nm, fluorescent emission at 535 nm was recorded by Beckman Coulter DTX880 photometer. Titration curves were fit using a four-parameter regression curve fitting program to determine EC50 values.
For these assays, a dilution series of His-tagged IDO1 human recombinant protein was captured using the macrocyclic peptide ligands immobilized on a NEUTRAVIDIN®-coated plate. […] The sequences of the peptide ligands are listed in Table 1, where D-amino acids are denoted in lowercase, Me-Trp=1-methyl-L-tryptophan, and F-Phe=4-fluoro-L-phenylalanine. Chemical structures are shown below Table 1.
The D-alanine substituted, biotin-PEG3-modified macrocycles were tested in the IDO1 ELISA (Affinity assay). For these assays, a dilution series of His-tagged IDO1 human recombinant protein was captured using macrocycles immobilized on a NEUTRAVIDIN®-coated plate.

Another data set deals with murine IDO1 protein (Mus musculus, UniProt P28776). In words: ELISA against murine IDO1 protein (species cross-reactivity). The settings on record: Table 10; read-out: Mouse IDO EC50. It counts as binding. The protocol:
as §1
To test for cross-reactivity with murine IDO1, the human IDO1 targeted macrocyclic peptide ligands were assayed against the murine IDO1 protein by ELISA.
In general terms: ELISA stands for enzyme-linked immunosorbent assay.

Another data set deals with HeLa cells. Put plainly: Cellular internalization of fluorescent IDO1 ligands (flow cytometry). It counts as cell-based. The settings on record: for Internalization of fluorescently labeled peptide, in words: Cy5 or FITC label, flow cytometry. The procedure: Internalization of fluorescently labeled peptides (using Cy5 or FITC) was measured by concentration dependent flow cytometry of unstimulated HeLa cells incubated for one hour with the peptide. […] Internalization was also testing using a cellular inhibition assay, which occurs over 48 hours (rather than the one hour for the flow cytometry assay). Internalized FITC-wyvay (SEQ ID NO:2) at 48 hours was compared to one hour in both unstimulated and stimulated HeLa cells (Table 13). Cell penetration of FITC-wyvay (SEQ ID NO:2) increases with time; more internalized FITC-wyvay (SEQ ID NO:2) can be detected at 48 hours compared to one hour. After one hour, no difference in intracellular staining of FITC-wyvay (SEQ ID NO:2) is observed in unstimulated versus stimulated cells. At 48 hours, there is a slight increase in intracellular FITC-wyvay (SEQ ID NO:2) in stimulated compared to unstimulated cells.
Protocol: HeLa cells were cultured to confluence (˜500,000 cells) in 6-well plates in cell culture medium (DMEM+10% Fetal Bovine Serum (FBS)+1% Penicillin/Streptomycin) or in cell culture medium containing 100 ng/mL IFNγ to stimulate IDO1 expression. The cells were treated with 2 μM or 8 μM macrocyclic IDO1 ligand labeled with either Cy5 or FITC for either 1 hour, 24 hours, or 48 hours as indicated. After treatment, the ligands were aspirated and the cells were washed twice with 1× Phosphate Buffered Saline (PBS). The cells were then harvested by treatment with 0.05% Trypsin-1×EDTA for 5 min at 37° C. Trypsin was quenched by the addition of PBS+2% FBS. The cells in suspension were washed twice in PBS+2% FBS, then resuspended in 500 μL PBS+2% FBS and analyzed for Cy5 or FITC fluorescence using a BD LSR Fortessa X-20 flow cytometer or/and ImageStream X Mark II imaging flow cytometer. Flow Cytometry Standard (fcs) data files were analyzed using FlowJo Software version 10.

[3] abbreviates: 2 μM biotinylated macrocycle immobilized, human IDO1 titrated 200 to 0 nM, read-out: EC50, sandwich ELISA for human IDO1 protein against biotin-PEG3-modified macrocycle.
[4] abbreviates: Table 10, read-out: Human IDO EC50.

T1 sequence (P14902 whole entry): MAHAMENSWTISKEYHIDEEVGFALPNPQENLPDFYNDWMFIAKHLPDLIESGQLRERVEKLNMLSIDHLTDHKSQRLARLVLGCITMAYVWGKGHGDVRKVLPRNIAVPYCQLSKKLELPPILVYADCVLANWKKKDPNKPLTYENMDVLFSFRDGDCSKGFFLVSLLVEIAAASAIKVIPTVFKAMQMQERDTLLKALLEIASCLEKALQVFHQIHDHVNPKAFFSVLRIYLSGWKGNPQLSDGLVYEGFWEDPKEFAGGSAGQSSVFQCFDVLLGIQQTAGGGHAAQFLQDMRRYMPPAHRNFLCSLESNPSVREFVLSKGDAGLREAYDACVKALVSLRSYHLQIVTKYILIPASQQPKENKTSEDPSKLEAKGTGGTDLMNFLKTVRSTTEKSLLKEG
murine IDO1 protein, sequence (P28776 whole entry): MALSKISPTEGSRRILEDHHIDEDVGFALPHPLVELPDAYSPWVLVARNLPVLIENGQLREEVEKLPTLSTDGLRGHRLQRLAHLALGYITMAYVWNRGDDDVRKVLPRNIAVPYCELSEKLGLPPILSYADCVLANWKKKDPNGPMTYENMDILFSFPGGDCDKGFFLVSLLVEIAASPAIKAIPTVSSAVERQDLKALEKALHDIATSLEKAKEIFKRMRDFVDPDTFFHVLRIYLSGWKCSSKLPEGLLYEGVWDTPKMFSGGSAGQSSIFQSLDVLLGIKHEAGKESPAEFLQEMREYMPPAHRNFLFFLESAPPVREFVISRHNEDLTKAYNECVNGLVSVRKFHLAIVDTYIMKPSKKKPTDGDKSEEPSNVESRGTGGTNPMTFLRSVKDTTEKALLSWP

For the compound `CC(C)[C@H]1NC(=O)[C@@H](Cc2ccc(O)cc2)NC(=O)[C@@H](Cc2c[nH]c3ccccc23)NC(=O)[C@@H](NC(=O)CNC(=O)CNC(=O)CNC(=O)CNC(=O)CNC(=O)CNC(=O)CNC(=O)CSc2nonc2/C(=N/O)Nc2ccc(F)c(Br)c2)Cc2cn(nn2)CCCC[C@@H](C(N)=O)NC(=O)[C@@H](Cc2ccc(O)cc2)NC(=O)[C@@H](C)NC1=O` [Inh-Gly7-wyvay] (X1-GGGGGGG[Pra][dW][dY][dV][dA][dY][Lys(N3)]-NH2; triazole 8-14), the “% MeCN” value in data set [1] stood at 43.72%.

For the compound `CC(C)[C@H](NC(=O)CCNC(=O)CSc1nonc1/C(=N/O)Nc1ccc(F)c(Br)c1)C(=O)N[C@H](C(=O)N[C@H](C(=O)N[C@H]1Cc2cn(nn2)CCCC[C@@H](C(N)=O)NC(=O)[C@@H](Cc2ccc(O)cc2)NC(=O)[C@@H](C)NC(=O)[C@@H](C(C)C)NC(=O)[C@@H](Cc2ccc(O)cc2)NC(=O)[C@@H](Cc2c[nH]c3ccccc23)NC1=O)C(C)C)C(C)C` [Inh-BA-(Val)3-wyvay] ({X1-βAla}-VVV[Pra][dW][dY][dV][dA][dY][Lys(N3)]-NH2; triazole 4-10), in data set [1], the “% MeCN” value was 45.12%.

As for `NC(=O)[C@@H]1CCCCn2cc(nn2)C[C@H](NC(=O)COCCOCCOCCNC(=O)CCCC[C@H]2SC[C@H]3NC(=O)N[C@H]32)C(=O)N[C@H](CO)C(=O)N2CCC[C@@H]2C(=O)N[C@H](Cc2c[nH]c3ccccc23)C(=O)N[C@H](Cc2c[nH]c3ccccc23)C(=O)N[C@H](Cc2ccc(F)cc2)C(=O)N1` [spww(F-Phe), biotin-PEG3-Cy(spww(F-Phe))] ({Biotinyl(3aR,4R,6aS)-AEEEA}-[Pra][dS][dP][dW][dW][dPhe(4-F)][Lys(N3)]-NH2; triazole 1-7), the EC50 in data set [2] (setting [3]) is 65 nM; in data set [2] (setting [4]), 85 ± 18 nM; at murine IDO1 protein, 44 nM.

Regarding “Cy5-nlf(Me-Trp)(F-Phe): Cy5 labeled Epitope 2 macrocycle nlf(Me-Trp)(F-Phe) ([dN][dL][dF][Trp(1-Me)][Phe(4-F)]; triazole (positions not given here); not fully specified (N-terminus, C-terminus, bridges); printed as Cy5-nlf(Me-Trp)(F-Phe); also: Cy5 label, macrocycle, closure not given here)”, in the data set on HeLa cells, the “Internalization of fluorescently labeled peptide, in words” value (“Internalization” for short) was “detected by flow cytometry and imaging”.

Turning to “FITC-wyvay: FITC labeled wyvay macrocycle ([dW][dY][dV][dA][dY]; triazole (positions not given here); also: FITC label, site not given here, macrocycle by click between N-terminal Pra and C-terminal Az4, not in chain)”, the MFIR in the data set with HeLa cells (stimulated HeLa cells, 1 hour) came out at 2.11; in the data set on HeLa cells (stimulated HeLa cells, 48 hours), 5.27; in the data set with HeLa cells (unstimulated HeLa cells, 1 hour), 2.27; with HeLa cells (unstimulated HeLa cells, 48 hours), 4.91.

In the case of “FITC-nlf(Me-Trp)(F-Phe): FITC labeled Epitope 2 macrocycle nlf(Me-Trp)(F-Phe) ([dN][dL][dF][Trp(1-Me)][Phe(4-F)]; triazole (positions not given here); also: FITC label, site not given here, macrocycle by click between N-terminal Pra and C-terminal Az4, not in chain)”, the “Internalization” value in the data set with HeLa cells is “reduced but detectable and concentration dependent”.

As to `CC(C)C[C@H]1NC(=O)[C@@H](CC(N)=O)NC(=O)[C@@H](NC(=O)COCCOCCOCCNC(=O)CCCC[C@H]2SC[C@H]3NC(=O)N[C@H]32)Cc2cn(nn2)CCCC[C@@H](C(N)=O)NC(=O)[C@@H](Cc2ccc(F)cc2)NC(=O)[C@@H](Cc2cn(C)c3ccccc23)NC(=O)[C@@H](Cc2ccccc2)NC1=O` [nlf(Me-Trp)(F-Phe), biotin-PEG3-Cy(nlf(Me-Trp)(F-Phe))] ({Biotinyl(3aR,4R,6aS)-AEEEA}-[Pra][dN][dL][dF][dTrp(1-Me)][dPhe(4-F)][Lys(N3)]-NH2; triazole 1-7), the EC50 in data set [2] (setting [3]) amounted to 20 nM; in data set [2] (setting [4]), 19 ± 1 nM; in data set [2] (binding analysis of VHL-linked Epitope 2 ligand, read-out: EC50), 44 nM; on murine IDO1 protein, 89 ± 26 nM.

On to `CC(C)C[C@H]1NC(=O)[C@@H](CC(N)=O)NC(=O)[C@@H](NC(=O)COCCOCCOCCNC(=O)CCCC[C@H]2SC[C@H]3NC(=O)N[C@H]32)Cc2cn(nn2)CCCC[C@@H](C(N)=O)NC(=O)[C@@H](CCCNC(=N)N)NC(=O)[C@@H](Cc2cn(C)c3ccccc23)NC(=O)[C@@H](Cc2c[nH]c3ccccc23)NC1=O` [nlw(Me-Trp)r, biotin-PEG3-Cy(nlw(Me-Trp)r)] ({Biotinyl(3aR,4R,6aS)-AEEEA}-[Pra][dN][dL][dW][dTrp(1-Me)][dR][Lys(N3)]-NH2; triazole 1-7), for which the results for the EC50 (in data set [2] (setting [3]); in data set [2] (setting [4]); at murine IDO1 protein) were 43 nM, 51 ± 17 nM and 48 nM, respectively.

Consider `N=C(N)NCCC[C@H]1NC(=O)[C@@H](Cc2ccc(O)cc2)NC(=O)[C@@H](Cc2c[nH]c3ccccc23)NC(=O)[C@@H](NC(=O)COCCOCCOCCNC(=O)CCCC[C@H]2SC[C@H]3NC(=O)N[C@H]32)Cc2cn(nn2)CCCC[C@@H](C(N)=O)NC(=O)[C@@H](Cc2ccc(O)cc2)NC1=O` [wyry, Biotin-PEG3-Cy(wyry)] ({Biotinyl(3aR,4R,6aS)-AEEEA}-[Pra][dW][dY][dR][dY][Lys(N3)]-NH2; triazole 1-6), for which the “Binding to human IDO1 by ELISA, in words” value in data set [2] (alanine scan, 3-mer/4-mer and substituted variants compared with parent macrocycle) is “best affinity among the 4-mer macrocycles; also recorded: superior binding affinity”. In addition, the “Internalization” value in the data set on HeLa cells is on record as “Concentration dependent internalization”.

For `Cn1cc(C[C@H]2NC(=O)[C@@H](Cc3ccccc3)NC(=O)[C@@H](CCCNC(=N)N)NC(=O)[C@@H](Cc3ccccc3)NC(=O)[C@@H](NC(=O)COCCOCCOCCNC(=O)CCCC[C@H]3SC[C@H]4NC(=O)N[C@H]43)Cc3cn(nn3)CCCC[C@@H](C(N)=O)NC(=O)[C@@H](CO)NC2=O)c2ccccc21` [frf(Me-Trp)s, biotin-PEG3-Cy(frf(Me-Trp)s)] ({Biotinyl(3aR,4R,6aS)-AEEEA}-[Pra][dF][dR][dF][dTrp(1-Me)][dS][Lys(N3)]-NH2; triazole 1-7), the EC50 in data set [2] (setting [3]) turned out to be 20 nM; in data set [2] (Example 9, read-out: Binding affinity (EC50) of prioritized Epitope 1 hits), 20 nM; in data set [2] (setting [4]), 18 ± 2 nM; at murine IDO1 protein, 36 ± 16 nM.

With “wy(N-Me-v)ay: wyvay peptide ligand with N-methylated valine (third N—H) ([Pra][dW][dY][dNMeV][dA][dY]; triazole N-C; not fully specified (C-terminus); printed as wy(N-Me-v)ay)”, the “Internalization” value in the data set on HeLa cells is given as “much higher than wyvay”.
